Measurements reported in ChEMBL document CHEMBL1201862, “PubChem BioAssay data set” (2004).
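Growth conditions: 96-well plates. Treatment: test compound, 48 hours, 5 concentrations. Analysis: linear interpolation between bracketing concentrations; unreached endpoints set to highest concentration. Here, GI50 denotes the concentration required for 50% inhibition of growth.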 Active and inactive are the calls of the source. Rule as the data show it: active = GI50 up to about 1.1 µM and inactive = higher.

What was measured:
Experiment in all cases: NCI-60 cell line screen, 48 h
[1] = system: BT-549
[2] = system: CAKI-1
[3] = system: HOP-92
[4] = system: MDA-MB-231
[5] = system: RPMI-8226
[6] = system: MOLT-4
[7] = system: OVCAR-5
[8] = system: HT-29
[9] = system: UACC-257
[10] = system: RXF 393
[11] = system: 786-0
[12] = system: UACC-62
[13] = system: MDA-MB-435
[14] = system: M14
[15] = system: SW-620
[16] = system: SK-MEL-5
[17] = system: OVCAR-4
[18] = system: SK-OV-3
[19] = system: COLO 205
[20] = system: SNB-19
[21] = system: ACHN
[22] = system: SN12C
[23] = system: NCI-H23
[24] = system: HCT-116
[25] = system: EKVX
[26] = system: PC-3
[27] = system: HL-60
[28] = system: U-251
[29] = system: IGROV-1
[30] = system: A498
[31] = system: Malme-3M
[32] = system: KM12
[33] = system: NCI-H226
[34] = system: MDA-N
[35] = system: SF-295
[36] = system: HCC 2998
[37] = system: MCF7
[38] = system: SK-MEL-2
[39] = system: HOP-62
[40] = system: SR
[41] = system: DU-145
[42] = system: Hs-578T
[43] = system: HCT-15
[44] = system: OVCAR-3
[45] = system: NCI/ADR-RES
[46] = system: UO-31
[47] = system: SF-539
[48] = system: CCRF-CEM
[49] = system: TK-10
[50] = system: OVCAR-8
[51] = system: NCI-H460
[52] = system: NCI-H522
[53] = system: LOX IMVI
[54] = system: K562
[55] = system: SNB-75
[56] = system: T47D
[57] = system: SF-268
[58] = system: SK-MEL-28
[59] = system: A549
[60] = system: LXFL 529
[61] = system: M19-MEL
[62] = system: SNB-78
[63] = system: KM-20L2

With `CC(C)(C)OC(=O)CCCCCNC(=O)CCCCCNC(=O)CCC(CN(CC(=O)OCc1ccccc1)CC(=O)OCc1ccccc1)N(CC(=O)OCc1ccccc1)CC(=O)OCc1ccccc1` (stereo not drawn) the GI50 [1] was > 100 µM (inactive), the GI50 [2] was 43.8 µM (inactive) and the GI50 [3] was 32.9 µM (inactive). For the same compound, the GI50 [4] was > 100 µM (inactive), the GI50 [5] was 11.8 µM (inactive) and the GI50 [6] was 20.1 µM (inactive). For the same compound, the GI50 [7] was > 100 µM (inactive), the GI50 [8] was > 100 µM (inactive) and the GI50 [9] was > 100 µM (inactive). For the same compound, the GI50 [10] was > 100 µM (inactive), the GI50 [11] was > 100 µM (inactive) and the GI50 [12] was > 100 µM (inactive). The GI50 [13] was > 100 µM (inactive), the GI50 [14] was > 100 µM (inactive) and the GI50 [15] was > 100 µM (inactive). The GI50 [16] was > 100 µM (inactive), the GI50 [17] was > 100 µM (inactive) and the GI50 [18] was > 100 µM (inactive). The GI50 [19] was > 100 µM (inactive), the GI50 [20] was > 100 µM (inactive) and the GI50 [21] was > 100 µM (inactive). For the same compound, the GI50 [22] was > 100 µM (inactive), the GI50 [23] was 68.1 µM (inactive) and the GI50 [24] was > 100 µM (inactive). For the same compound, the GI50 [25] was > 100 µM (inactive), the GI50 [26] was > 100 µM (inactive) and the GI50 [27] was 61.1 µM (inactive). For the same compound, the GI50 [28] was > 100 µM (inactive), the GI50 [29] was > 100 µM (inactive) and the GI50 [30] was > 100 µM (inactive). The GI50 [31] was > 100 µM (inactive), the GI50 [32] was > 100 µM (inactive) and the GI50 [33] was > 100 µM (inactive). The GI50 [34] was > 100 µM (inactive), the GI50 [35] was > 100 µM (inactive) and the GI50 [36] was > 100 µM (inactive). The GI50 [37] was > 100 µM (inactive), the GI50 [38] was > 100 µM (inactive) and the GI50 [39] was > 100 µM (inactive). The GI50 [40] was 20.5 µM (inactive), the GI50 [41] was > 100 µM (inactive) and the GI50 [42] was > 100 µM (inactive). The GI50 [43] was > 100 µM, the GI50 [44] was > 100 µM (inactive) and the GI50 [45] was > 100 µM (inactive). The GI50 [46] was 71.1 µM (inactive), the GI50 [47] was > 100 µM (inactive) and the GI50 [48] was 31.4 µM (inactive). For the same compound, the GI50 [49] was > 100 µM (inactive), the GI50 [50] was > 100 µM (inactive) and the GI50 [51] was 14.6 µM (inactive). For the same compound, the GI50 [52] was > 100 µM (inactive), the GI50 [53] was > 100 µM (inactive) and the GI50 [54] was 25.2 µM (inactive). For the same compound, the GI50 [55] was 20.2 µM (inactive), the GI50 [56] was > 100 µM (inactive) and the GI50 [57] was > 100 µM (inactive). The GI50 [58] was > 100 µM (inactive) and the GI50 [59] was > 100 µM (inactive).

With `COc1ccc2c(c1)CC[C@@H]1C2CC[C@]2(C)C(=O)N(CCN3CCCCC3)C(=O)CC12` (stereo partly drawn) the GI50 [3] was 44.5 µM (inactive), the GI50 [5] was 74.5 µM (inactive) and the GI50 [6] was > 10 µM (inactive). For the same compound, the GI50 [7] was > 100 µM (inactive), the GI50 [8] was 51.5 µM (inactive) and the GI50 [9] was 44.3 µM (inactive). The GI50 [10] was 31.9 µM (inactive), the GI50 [11] was > 100 µM (inactive) and the GI50 [12] was 21.2 µM (inactive). The GI50 [14] was 21.3 µM (inactive), the GI50 [17] was > 100 µM (inactive) and the GI50 [18] was > 100 µM (inactive). The GI50 [19] was > 100 µM (inactive), the GI50 [20] was > 100 µM (inactive) and the GI50 [21] was > 100 µM (inactive). The GI50 [23] was > 100 µM (inactive), the GI50 [24] was > 100 µM (inactive) and the GI50 [60] was > 100 µM (inactive). For the same compound, the GI50 [27] was 21.6 µM (inactive), the GI50 [28] was > 100 µM (inactive) and the GI50 [29] was > 100 µM (inactive). For the same compound, the GI50 [30] was 36.4 µM (inactive), the GI50 [31] was 57.3 µM (inactive) and the GI50 [32] was > 100 µM (inactive). The GI50 [35] was > 100 µM (inactive), the GI50 [61] was 35.8 µM (inactive) and the GI50 [38] was 60.3 µM (inactive). For the same compound, the GI50 [39] was > 100 µM (inactive), the GI50 [40] was 75.3 µM (inactive) and the GI50 [62] was > 100 µM (inactive). The GI50 [46] was 83.2 µM (inactive), the GI50 [47] was > 100 µM (inactive) and the GI50 [48] was 75.5 µM (inactive). The GI50 [51] was > 100 µM (inactive), the GI50 [63] was 47.6 µM (inactive) and the GI50 [52] was 78.9 µM (inactive). The GI50 [54] was 58.1 µM (inactive), the GI50 [55] was 58.5 µM (inactive) and the GI50 [57] was > 100 µM (inactive). For the same compound, the GI50 [58] was 34.8 µM (inactive).

`Cc1cc(C)nc(NS(=O)(=O)c2ccc(NC(=O)c3ccc4nc5ccccc5c(Nc5ccc(S(=O)(=O)Nc6nc(C)cc(C)n6)cc5)c4c3)cc2)n1` was tested, and the GI50 [1] was 19 µM (inactive), the GI50 [2] was > 100 µM (inactive) and the GI50 [3] was 23 µM (inactive). The GI50 [4] was 20.8 µM (inactive), the GI50 [5] was 37.2 µM (inactive) and the GI50 [6] was 28.5 µM (inactive). The GI50 [7] was > 100 µM (inactive), the GI50 [8] was 64.9 µM (inactive) and the GI50 [9] was > 100 µM (inactive). For the same compound, the GI50 [10] was 34.9 µM (inactive), the GI50 [11] was > 100 µM (inactive) and the GI50 [12] was 66.4 µM (inactive). For the same compound, the GI50 [13] was > 100 µM (inactive), the GI50 [14] was > 100 µM (inactive) and the GI50 [15] was 41.4 µM (inactive). For the same compound, the GI50 [16] was > 100 µM (inactive), the GI50 [17] was 68.7 µM (inactive) and the GI50 [18] was 59.2 µM (inactive). For the same compound, the GI50 [19] was > 100 µM (inactive), the GI50 [20] was > 100 µM (inactive) and the GI50 [21] was > 100 µM (inactive). For the same compound, the GI50 [22] was 46.5 µM (inactive), the GI50 [23] was 34 µM (inactive) and the GI50 [24] was 57 µM (inactive). For the same compound, the GI50 [25] was > 100 µM (inactive), the GI50 [26] was 59.7 µM (inactive) and the GI50 [27] was 33 µM (inactive). The GI50 [28] was 35.3 µM (inactive), the GI50 [29] was 52.5 µM (inactive) and the GI50 [30] was > 100 µM (inactive). The GI50 [31] was 67.5 µM (inactive), the GI50 [32] was 30.3 µM (inactive) and the GI50 [33] was > 100 µM (inactive). For the same compound, the GI50 [34] was 91 µM (inactive), the GI50 [35] was > 100 µM (inactive) and the GI50 [36] was 61.8 µM (inactive). For the same compound, the GI50 [37] was 37.8 µM (inactive), the GI50 [38] was 36.2 µM (inactive) and the GI50 [39] was > 100 µM (inactive). For the same compound, the GI50 [40] was 39.7 µM (inactive), the GI50 [41] was > 100 µM (inactive) and the GI50 [42] was 69.7 µM (inactive). For the same compound, the GI50 [43] was > 100 µM, the GI50 [44] was > 100 µM (inactive) and the GI50 [45] was > 100 µM (inactive). The GI50 [46] was > 100 µM (inactive), the GI50 [47] was 88.3 µM (inactive) and the GI50 [48] was 36.6 µM (inactive). The GI50 [49] was > 100 µM (inactive), the GI50 [50] was > 100 µM (inactive) and the GI50 [51] was 88.5 µM (inactive). For the same compound, the GI50 [52] was 25.5 µM (inactive), the GI50 [53] was 19.1 µM (inactive) and the GI50 [54] was 38 µM (inactive). For the same compound, the GI50 [55] was > 100 µM (inactive), the GI50 [56] was 46.7 µM (inactive) and the GI50 [57] was 58.6 µM (inactive). The GI50 [58] was > 100 µM (inactive) and the GI50 [59] was > 100 µM (inactive).
